In patent US8759363B2, “Quinazoline-based T cell proliferation inhibitors” (Yissum Research Development Company of the Hebrew …, priority 2010, dated 2014):
“And” between values parts separate entries of the source, which are not always exact repeats. Equal values may be shown once. Read-outs that look alike come from different tables or passages of the source.

How the values were obtained:
[1] = In vitro percutaneous absorption and penetration, porcine ear skin; assay type: in vitro ADME
Protocol: Fresh porcine ears were obtained from local slaughterhouse. Dorsal side skin was surgically removed from the ears. Hairs were trimmed off with an electric trimmer. Subcutaneous fat was carefully cleaned. […] They were stored at −20° C. until use.
Compound 2 was dispersed into Labrasol® (Gattefosse, France) The mixture was heated to 35° C. and stirred until solubilized. Final concentrations: 0.108% and 0.316%. The final products are clear and somewhat viscous solutions.
The skin samples were mounted on Zyleris' High-Throughput Screening (HTS) station. Each individual cell has a diffusion area of 0.503 cm^2 (8 mm in diameter). The receptor chamber was filled with 2.0 ml of 5% Oleth-20 in 1×PBS buffer, pH 7.4 (10 mM Phosphate, 138 mM NaCl and 2 mM KCl), which was continuously mixed at 200 r.p.m. The screening experiments were carried out at 32±0.1° C. Oleth-20 is a polyethylene glycol ether of Oleyl Alcohol [Poly(oxy-1,2-ethanediyl) 20 mol Ethylene Oxide average molar ratio] (Spectrum Chemical, California).
The samples were dosed at 5 mg for both formulations. Each formulation was run in three replicates. At the end of each time interval (2, 12, and 24 h), the skin surface was wiped with cotton ball. The standard tape-stripping method was used to remove the stratum corneum (SC) layer. Repeated tape-stripping was continued until SC layer was disappeared (15 strips). Compound 2 absorbed in epidermis/dermis layer was collected by solvent extraction with DMSO. After tape-stripping, the remaining skin samples were minced and vortexed with 1.5 ml DMSO. The supernatant was separated. The extraction step was repeated three times. The supernatants were combined and ready for analysis.
The analysis was carried out with a Shimadzu LC-10ADVP instrument with Varian Polaris 3 C18-A, 50×3.0 mm, column. Mobile Phase A: 0.1% formic acid in water. Mobile Phase B: 0.1% formic acid in methanol. Flow rate: 0.4 ml/min.
MS system is an AB Scienx API4000 operated at positive ionization mode. The calibration range is 2.50-25,000 ng/ml.
Quality control of the screening experiments was established by measuring mass balances of a couple of selected runs (spot-check). Measurement of mass balance is to determine total amount of 2 recovered after each experiment. After the selected experiments, total amount of 2 left on the skin surface, absorbed in stratum corneum, in epidermis/dermis layer, and collected in the receptor medium was extracted and determined by LC-MS/MS analysis. The total amount was then compared to the initial dosing amount to determine recovery percentage. Two of the 12 hr runs for the 0.316% formulation was selected for the spot-check. […] They are within acceptable range of 80-120%.

[2] = system: HEK293; assay: HEK293 proliferation, BrdU uptake; assay type: cell-based; conditions: Homo sapiens
Protocol: Cells were depleted of fetal calf serum (FCS) for 12 hours. They were then stimulated to proliferate by addition of ConA (10 μg/ml) for PBMC from healthy individuals and for Jurkat cells, FCS (10%) for HEK293 and A375 cells, PDGF (30 ng/ml) for NIH 3T3 cells, and EGF (30 ng/ml) for MDA-MB-231, Cells (1×10^5) were cultured in 96-well plates for 3 days in the presence or absence of inhibitors at the concentrations specified in the text. Each condition was tested in duplicate wells.
Proliferation was assessed by BrdU incorporation using a colorimetric ELISA kit (Roche, Germany). Subsequent to labeling with 10 μM BrdU, DNA was denatured and the cells were incubated with anti-BrdU-POD, prior to the addition of colorimetric substrate (TMB). The reaction product was quantified by measuring absorbance at 450 nm in an ELISA plate reader (ELx800 BIO-TEK Instruments Inc.).
To characterize the mode of action of 2 (S101) in more detail, we first examined whether 2 inhibits non-hematopoietic cell lines. We studied the effect of 2 on the growth of four cell lines: NIH 3T3 (mouse embryonic fibroblasts), A-431 (human vulval carcinoma cells), MDA-MB-468 (human breast carcinoma cells), and PANC-1 (human pancreatic carcinoma cells) (FIGS. 1A-B). We also tested the inhibitors on human keratinocytes. […]

[3] = system: SLP-76; assay: SLP-76 tyrosine phosphorylation in Jurkat cells, immunoprecipitation and western blot; assay type: cell-based, human; conditions: Jurkat cells treated 16 h, up to 1 μM
Protocol: Jurkat cells were washed in PBS containing Ca^2+ and Mg^2+ (Biological Industries, Beit Haemek), preheated to 37° C. for 15 min, and were either mock stimulated with PBS, or were stimulated for 1 minute with C305 (1:500). Cells were then collected and lysed at a concentration of 2×10^7 cells/ml in cold lysis buffer containing 1% NP-40, 10 mM Tris (pH 7.8), 150 mM NaCl, 1 mM phenylmethylsulfonyl fluoride (PMSF), 2 μg/ml pepstatin A, 1 μg/ml leupeptin, 10 mM sodium pyrophosphate, 0.4 mM EDTA, 0.4 mM sodium orthovanadate, and 50 mM NaF, 50 mM beta-glycerol phosphate pH 7.5 and 20 mM sodium pyrophosphate pH 7.5. After 20 min at 4° C., the lysates were cleared by centrifugation in a microfuge (Eppendorf, centrifuge 5427R) at 16,000×g for 10 min at 4° C. The supernatants were used directly for immunoprecipitation.
Western blots were prepared on nitrocellulose using standard techniques. Membranes were blocked in TBST buffer (10 mM Tris-HCl, pH 7.4 (TBS), 0.2% Tween 20, 170 mM NaCl) containing 5% low-fat milk, then probed overnight with the appropriate primary antibody. […]
Jurkat cells were treated with 2 for 16 h, and SLP-76 phosphorylation was measured by immunoprecipitation of SLP-76 protein followed by western blotting with an antibody to the phosphorylated tyrosines of the protein (FIG. 6A). […]

For `COc1cc(-c2nc(Nc3ccc(C)cc3)c3ccccc3n2)cc(OC)c1OC` [Compound 2, N-p-tolyl-2-(3,4,5-trimethoxyphenyl)quinazolin-4-amine], the “skin concentration relative to the IC50” value ([1]; after 24 h, 0.3% 2 in Labrasol) was 1000 folds, the “final concentration in the skin (epidermis/dermis)” value ([1]; after 24 h, initial concentration 0.3% 2 in Labrasol, estimated) was “higher than 114 μM” and the “penetration of the epidermis/dermis layer” value ([1]; porcine ears skin, Labrasol formulation) was “able to penetrate”. For the same compound, the “recovery percentage (mass balance)” value ([1]; two 12 hr runs, 0.316% formulation) was 89% and 114%, the IC50 ([2]; HEK293, non-stimulated, read-out: IC50 of non-stimulated cells) was roughly 10 µM and the IC50 ([2]; HEK293, serum (FCS 10%) activated, read-out: IC50 of stimulated cells) was roughly 10 µM. The “tyrosine phosphorylation of SLP-76” value [3] was “reduced but not abolished”.
